The source of these data is patent US20220402950A1, “SUBSTITUTED BENZIMIDAZOLES AS PAD4 INHIBITORS” (BRISTOL-MYERS SQUIBB COMPANY, priority 2018, published 2022).

The target in this assay is human PAD4 (hPAD4) (Homo sapiens, UniProt Q9UM07). Briefly: RFMS Human PAD4 Functional Assay. The class given is biochemical. The following applies: 5 nM hPAD4, 250 μM BAEE. A digest of the protocol:
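RapidFire ESI-MS quantification, normalised to a modified-citrulline internal standard, after phenyl glyoxal (final 4 mM) derivatisation of the TCA-quenched reaction. The enzyme (10 nM) sat 30 min with compound (up to 50 μM final) before 500 μM BAEE (as added) started a 90 min, 37 °C reaction. Buffer: HEPES pH 7.5, 50 μM calcium, 5 μM TPEN.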

Setting [1] is: human PAD4, rapid-fire mass spectrum (RFMS) assay, read-out: hPAD4 RFMS IC50.
[2] abbreviates: hPAD4 RFMS IC50, human PAD4, rapid-fire mass spectrum (RFMS) assay.

Read-outs that look alike come from different tables or passages of the source.

Sequence of human PAD4 (hPAD4) (Q9UM07 whole entry): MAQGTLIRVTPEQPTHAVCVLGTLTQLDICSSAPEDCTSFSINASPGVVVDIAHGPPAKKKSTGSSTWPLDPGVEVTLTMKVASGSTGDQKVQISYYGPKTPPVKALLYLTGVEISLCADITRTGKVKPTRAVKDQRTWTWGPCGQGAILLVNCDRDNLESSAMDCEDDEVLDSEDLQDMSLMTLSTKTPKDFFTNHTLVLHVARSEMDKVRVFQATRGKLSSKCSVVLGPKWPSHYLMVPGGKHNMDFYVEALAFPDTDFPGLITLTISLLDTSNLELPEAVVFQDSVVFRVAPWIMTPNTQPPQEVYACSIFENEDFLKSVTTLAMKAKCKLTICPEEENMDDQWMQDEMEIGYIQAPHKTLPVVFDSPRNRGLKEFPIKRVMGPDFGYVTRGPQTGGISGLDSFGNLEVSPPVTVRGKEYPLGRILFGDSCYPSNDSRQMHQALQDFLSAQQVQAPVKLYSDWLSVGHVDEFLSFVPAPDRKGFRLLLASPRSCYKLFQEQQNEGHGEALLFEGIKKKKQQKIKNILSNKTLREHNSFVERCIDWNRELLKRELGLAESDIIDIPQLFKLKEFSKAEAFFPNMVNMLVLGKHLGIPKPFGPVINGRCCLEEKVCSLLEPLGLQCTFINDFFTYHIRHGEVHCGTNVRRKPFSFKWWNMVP

For orientation: IC50 means the midpoint of a concentration-inhibition curve. On to `COc1cc(C(=O)N2C[C@H]3CC[C@@H]2[C@@H]3N)cc2nc(-c3cc4cccc(-c5cn(CCO)nn5)c4n3CC3CC3)n(C)c12` (stereo in doubt) [Example 108, 2-{4-[2-(5-{7-amino-2-azabicyclo[2.2.1]heptane-2-carbonyl}-7-methoxy-1-methyl-1H-1,3-benzodiazol-2-yl)-1-(cyclopropylmethyl)-1H-indol-7-yl]-1H-1,2,3-triazol-1-yl}ethan-1-ol], for which the 50% inhibitory concentration (IC50) under setting [1] amounted to 73 nM. Take `COc1cc(C(=O)N2C[C@H](N)CC[C@@H]2C)cc2nc(-c3cc4cccc(C5CN(C(C)=O)C5)c4n3CC3CC3)n(C)c12` [Example 42, 1-(3-(2-(5-((2S,5R)-5-amino-2-methylpiperidine-1-carbonyl)-7-methoxy-1-methyl-1H-benzo[d]imidazol-2-yl)-1-(cyclopropylmethyl)-1H-indol-7-yl)azetidin-1-yl)ethan-1-one]: the IC50 under setting [1] came out at 141 nM.

`COc1cc(C(=O)N2C[C@H](N)C[C@@H](F)C2)cc2nc(-c3cc4cccc(C5CC(C(N)=O)C5)c4n3CC3CC3)n(C)c12` (single isomer, unassigned) [Example 114]: the IC50 under setting [2] stood at 81 nM. The same measure, in the same setting: as for `COc1cc(C(=O)N2C[C@H]3CC[C@@H]2[C@@H]3N)cc2nc(-c3cc4cccc(Nc5c(C)nn(C)c5C)c4n3CC3CC3)n(C)c12` [Example 174, ((1R,4R,7R)-7-amino-2-azabicyclo[2.2.1]heptan-2-yl)(2-(1-(cyclopropylmethyl)-7-((1,3,5-trimethyl-1H-pyrazol-4-yl)amino)-1H-indol-2-yl)-7-methoxy-1-methyl-1H-benzo[d]imidazol-5-yl)methanone], the figure is 41 nM. Take `COc1cc(C(=O)N2C[C@H]3CC[C@@H]2[C@@H]3N)cc2nc(-c3cc4cccc(Nc5cnn(C)c5)c4n3CC3CC3)n(C)c12` [Example 171, ((1R,4R,7R)-7-amino-2-azabicyclo[2.2.1]heptan-2-yl)(2-(1-(cyclopropylmethyl)-7-((1-methyl-1H-pyrazol-4-yl)amino)-1H-indol-2-yl)-7-methoxy-1-methyl-1H-benzo[d]imidazol-5-yl)methanone]: inhibition under setting [2] was half-maximal at 96 nM (IC50). In the case of `COc1cc(C(=O)N2C[C@H](N)C[C@@H](F)C2)cc2nc(-c3cc4cccc(C5CCN(C(C)=O)CC5)c4n3CC3CC3)n(C)c12` [Example 205, 1-(4-(2-(5-((3R,5R)-3-amino-5-fluoropiperidine-1-carbonyl)-7-methoxy-1-methyl-1H-benzo[d]imidazol-2-yl)-1-(cyclopropylmethyl)-1H-indol-7-yl)piperidin-1-yl)ethan-1-one], under setting [2], the IC50 turned out to be 41 nM. The same measure, in the same setting: for `COc1cc(C(=O)N2C[C@H]3CC[C@@H]2[C@@H]3N)cc2nc(-c3cc4cccc(C5CN(S(=O)(=O)c6ccccc6)C5)c4n3CC3CC3)n(C)c12` [Example 83, (1R,4R,7R)-2-(2-{7-[1-(benzenesulfonyl)azetidin-3-yl]-1-(cyclopropylmethyl)-1H-indol-2-yl}-7-methoxy-1-methyl-1H-1,3-benzodiazole-5-carbonyl)-2-azabicyclo[2.2.1]heptan-7-amine] the value was 123 nM; for `COc1cc(C(=O)N2C[C@H]3CC[C@@H]2[C@@H]3N)cc2nc(-c3cc4cccc(C5CCN(C(=O)CC#N)CC5)c4n3CC3CC3)n(C)c12` [Example 231, 3-(4-(2-(5-((1R,4R,7R)-7-amino-2-azabicyclo[2.2.1]heptane-2-carbonyl)-7-methoxy-1-methyl-1H-benzo[d]imidazol-2-yl)-1-(cyclopropylmethyl)-1H-indol-7-yl)piperidin-1-yl)-3-oxopropanenitrile], 66 nM. Consider `COc1cc(C(=O)N2C[C@H]3CC[C@@H]2[C@@H]3N)cc2nc(-c3cc4cccc(C5CCN(C(=O)Nc6ccccc6)CC5)c4n3CC3CC3)n(C)c12` [Example 187, 4-(2-(5-((1R,4R,7R)-7-amino-2-azabicyclo[2.2.1]heptane-2-carbonyl)-7-methoxy-1-methyl-1H-benzo[d]imidazol-2-yl)-1-(cyclopropylmethyl)-1H-indol-7-yl)-N-phenylpiperidine-1-carboxamide], for which the IC50 under setting [1] was 18 nM. Under setting [2], `COc1cc(C(=O)N2C[C@H]3CC[C@@H]2[C@@H]3N)cc2nc(-c3cc4cccc(-c5cc(F)c(O)cc5F)c4n3CC3CC3)n(C)c12` [Example 94, 4-(2-{5-[(1R,4R,7R)-7-amino-2-azabicyclo[2.2.1]heptane-2-carbonyl]-7-methoxy-1-methyl-1H-1,3-benzodiazol-2-yl}-1-(cyclopropylmethyl)-1H-indol-7-yl)-2,5-difluorophenol] gave an IC50 of 45 nM. Turning to `COc1cc(C(=O)N2C[C@H]3CC[C@@H]2[C@@H]3N)cc2nc(-c3cc4cccc(C5CCCNC5)c4n3CC3CC3)n(C)c12` (stereo partly drawn) [Example 12, (1R,4R,7R)-2-{2-[1-(cyclopropylmethyl)-7-(piperidin-3-yl)-1H-indol-2-yl]-7-methoxy-1-methyl-1H-1,3-benzodiazole-5-carbonyl}-2-azabicyclo[2.2.1]heptan-7-amine], under setting [2], the IC50 is 73 nM.

Turning to `COc1cc(C(=O)N2C[C@H]3CC[C@@H]2[C@@H]3N)cc2nc(-c3cc4cccc(C5CC(C(=O)N6CC[C@H](O)C6)C5)c4n3CC3CC3)n(C)c12` (single isomer, unassigned) [Example 54], the IC50 under setting [2] turned out to be 92 nM. As for `COc1cc(C(=O)N2C[C@H]3CC[C@@H]2[C@@H]3N)cc2nc(-c3cc4cccc(-c5cnn(C)c5)c4n3CC3CC3)n(C)c12` [Example 122, ((1R,4R,7R)-7-amino-2-azabicyclo[2.2.1]heptan-2-yl)(2-(1-(cyclopropylmethyl)-7-(1-methyl-1H-pyrazol-4-yl)-1H-indol-2-yl)-7-methoxy-1-methyl-1H-benzo[d]imidazol-5-yl)methanone], under setting [1], the IC50 is 57 nM. Take `COc1cc(C(=O)N2C[C@H]3CC[C@@H]2[C@@H]3N)cc2nc(-c3cc4cccc(-c5ccc(O)c(C(=O)O)c5)c4n3CC3CC3)n(C)c12` [Example 121, 5-(2-(5-((1R,4R,7R)-7-amino-2-azabicyclo[2.2.1]heptane-2-carbonyl)-7-methoxy-1-methyl-1H-benzo[d]imidazol-2-yl)-1-(cyclopropylmethyl)-1H-indol-7-yl)-2-hydroxybenzoic Acid]: the IC50 under setting [1] worked out at 753 nM. `COc1cc(C(=O)N2C[C@H]3CC[C@@H]2[C@@H]3N)cc2nc(-c3cc4cccc(CCC5CCCNC5)c4n3CC3CC3)n(C)c12` (stereo partly drawn) [Example 32, (1R,4R,7R)-2-{2-[1-(cyclopropylmethyl)-7-[2-(piperidin-3-yl)ethyl]-1H-indol-2-yl]-7-methoxy-1-methyl-1H-1,3-benzodiazole-5-carbonyl}-2-azabicyclo[2.2.1]heptan-7-amine] yielded an IC50 under setting [2] of 32 nM. `COc1cc(C(=O)N2CC3CCC2C3N)cc2nc(-c3cc4cccc(NCC5CNC5)c4n3CC3CC3)n(C)c12` (centres unmarked) [Example 159, (7-amino-2-azabicyclo[2.2.1]heptan-2-yl)(2-(7-((azetidin-3-ylmethyl)amino)-1-(cyclopropylmethyl)-1H-indol-2-yl)-7-methoxy-1-methyl-1H-benzo[d]imidazol-5-yl)methanone] yielded a half-maximal inhibitory concentration (IC50) under setting [2] of 150 nM. The same measure, in the same setting: as for `COc1cc(C(=O)N2C[C@H]3CC[C@@H]2[C@@H]3N)cc2nc(-c3cc4cccc(C5CC(O)C5)c4n3CC3CC3)n(C)c12` (mixture of isomers) [Example 18, cis- and trans-3-(2-{5-[(1R,4R,7R)-7-amino-2-azabicyclo[2.2.1]heptane-2-carbonyl]-7-methoxy-1-methyl-1H-1,3-benzodiazol-2-yl}-1-(cyclopropylmethyl)-1H-indol-7-yl)cyclobutan-1-ol], the figure is 71 nM; as for `COc1cc(C(=O)N2CC3CCC2[C@@H]3N)cc2nc(-c3cc4cccc(Nc5ccc(CO)cc5)c4n3CC3CC3)n(C)c12` (stereo partly drawn) [Example 164, ((7R)-7-amino-2-azabicyclo[2.2.1]heptan-2-yl)(2-(1-(cyclopropylmethyl)-7-((4-(hydroxymethyl)phenyl)a-mino)-1H-indol-2-yl)-7-methoxy-1-methyl-1H-benzo[d]imidazol-5-yl)methanone], 153 nM. Regarding `COc1cc(C(=O)N2C[C@H]3CC[C@@H]2[C@@H]3N)cc2nc(-c3cc4cccc(CC5CCNCC5)c4n3CC3CC3)n(C)c12` [Example 10, (1R,4R,7R)-2-{2-[1-(cyclopropylmethyl)-7-[(piperidin-4-yl)methyl]-1H-indol-2-yl]-7-methoxy-1-methyl-1H-1,3-benzodiazole-5-carbonyl}-2-azabicyclo[2.2.1]heptan-7-amine], half-maximal inhibition under setting [2] (IC50) was put at 128 nM.

In turn, `COc1cc(C(=O)N2C[C@H](N)C[C@@H](F)C2)cc2nc(-c3cc4cccc(C5CC(C(N)=O)C5)c4n3CC3CC3)n(C)c12` (single isomer, unassigned) [Example 113] registered an IC50 under setting [2] of 52 nM. The same measure, in the same setting: for `COc1cc(C(=O)N2C[C@H]3CC[C@@H]2[C@@H]3N)cc2nc(-c3cc4cccc(-c5cn[nH]c5)c4n3CC3CC3C)n(C)c12` (stereo partly drawn) [Example 156, ((1R,4R,7R)-7-amino-2-azabicyclo[2.2.1]heptan-2-yl)(7-methoxy-1-methyl-2-(1-((2-methylcyclopropyl)meth-yl)-7-(1H-pyrazol-4-yl)-1H-indol-2-yl)-1H-benzo[d]imidazol-5-yl)methanone] the value was 79 nM; for `COc1cc(C(=O)N2C[C@H]3CC[C@@H]2[C@@H]3N)cc2nc(-c3cc4cccc(C5CN(C(=O)CO)C5)c4n3CC3CC3)n(C)c12` [Example 82, 1-[3-(2-{5-[(1R,4R,7R)-7-amino-2-azabicyclo[2.2.1]heptane-2-carbonyl]-7-methoxy-1-methyl-1H-1,3-benzodiazol-2-yl}-1-(cyclopropylmethyl)-1H-indol-7-yl)azetidin-1-yl]-2-hydroxyethan-1-one], 10 nM. Consider `COc1cc(C(=O)N2C[C@H]3CC[C@@H]2[C@@H]3N)cc2nc(-c3cc4cccc(C5CCCC(C(N)=O)C5)c4n3CC3CC3)n(C)c12` (single isomer, unassigned) [Example 86], for which, under setting [1], the IC50 was 40 nM.
